According to patent publication US11491105B2, “Methods of treating microbial infections, including mastitis” (priority 2013, dated 2022):

Test system: red blood cells
Test: Eukaryotic cell toxicity testing (erythrocyte haemolysis)
Type: cell-based
Conditions: 2% blood cell solution, 37° C., one hour
Protocol: Erythrocyte haemolysis was used in order to test the toxicity of all five compounds to eukaryotic cells. Blood samples were washed using 9.1 g/L saline solution and centrifuged at 2500 rpm for 10 minutes. This process was repeated until cellular debris and partially lysed cells were removed from solution. 2 mL of the remaining blood cells were suspended in 98 mL of 9.1 g/L saline solution to produce a 2% blood cell solution, which was dispensed in 90 μL volumes into the wells of a 96 well plate. The compound solutions as well as chloramphenicol were prepared from stock solution to a concentration of 256 μg/mL (as described above). Chloramphenicol was used as a negative control for erythrocyte lysis while a ready to use solution of amphotericin B was used as a positive control. 90 μL of the compounds and controls were added to the final well in different rows. These compounds were serially diluted across the row in order to test the different concentrations of antimicrobials. Wells containing only 2% blood solution were also used to assess variation between readings from different columns on the 96 well plates. These tests were incubated at 37° C. for one hour and then assessed for lysis both visually and using a microplate reader to measure optical density at 600 nm wavelengths. Each test was performed in duplicate and then repeated in quadruplicate in order to ensure accuracy.

CC[C@@H](C(=O)[C@@H](C)[C@@H](O)[C@H](C)CCc1ccc(C)c(O)c1C(=O)O)[C@H]1O[C@](CC)([C@H]2CC[C@](O)(CC)[C@H](C)O2)C[C@@H]1C [LP 1369, Lasalocid]
concentration at which lysis was most visually evident: 64000 ng/mL
concentration range in which some lysis of cells was observed: 32000 to 128000 ng/mL
